The results in this text go back to patent publication US11247990B1, “Bicyclic fused pyridine compounds as inhibitors of TAM kinases” (ARRAY BIOPHARMA INC., priority 2017, dated 2022).

pIC50: −log10 of the molar value.

Usually pIC50 stands for −log10 of the IC50, conventionally taken in molar units.

Holding throughout (settings): averaged IC50
Assay [1] deals with His-tagged recombinant human MER cytoplasmic domain (Homo sapiens (Human), UniProt Q12866). Briefly: MER Enzyme Assay (LanthaScreen Eu Kinase Binding, TR-FRET). Put shortly:
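LanthaScreen Eu kinase binding (tracer displacement) assay with His-tagged human MER cytoplasmic domain, 60 min incubation at 22 °C. TR-FRET dual-wavelength emission ratio converted to percent of control; IC50 is where the 4-parameter logistic fit crosses 50 POC.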
A general note: In TR-FRET formats the signal depends on donor and acceptor labels being close together.

Assay [2] addresses His-tagged recombinant human AXL cytoplasmic domain (Homo sapiens (Human), UniProt P30530). Briefly: AXL Enzyme Assay (LanthaScreen Eu Kinase Binding, TR-FRET). Put shortly:
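LanthaScreen Eu kinase binding format, incubated 60 min at 22 °C and read by TR-FRET dual-wavelength emission ratio as percent of control. IC50 taken where a 4-parameter logistic fit crosses 50 POC.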

Assay [3] has as its target GST-tagged recombinant human TYRO3 kinase domain (Homo sapiens (Human), UniProt Q06418). The experiment in a line: TYRO3 Enzyme Assay (LanthaScreen Eu Kinase Binding, TR-FRET). Put shortly: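 LanthaScreen Eu binding (tracer displacement) format read by TR-FRET after 60 min at 22 °C. Emission ratio converted to percent of control; IC50 taken where a 4-parameter logistic fit crosses 50 POC.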

Sequence of His-tagged recombinant human AXL cytoplasmic domain (P30530 473-894): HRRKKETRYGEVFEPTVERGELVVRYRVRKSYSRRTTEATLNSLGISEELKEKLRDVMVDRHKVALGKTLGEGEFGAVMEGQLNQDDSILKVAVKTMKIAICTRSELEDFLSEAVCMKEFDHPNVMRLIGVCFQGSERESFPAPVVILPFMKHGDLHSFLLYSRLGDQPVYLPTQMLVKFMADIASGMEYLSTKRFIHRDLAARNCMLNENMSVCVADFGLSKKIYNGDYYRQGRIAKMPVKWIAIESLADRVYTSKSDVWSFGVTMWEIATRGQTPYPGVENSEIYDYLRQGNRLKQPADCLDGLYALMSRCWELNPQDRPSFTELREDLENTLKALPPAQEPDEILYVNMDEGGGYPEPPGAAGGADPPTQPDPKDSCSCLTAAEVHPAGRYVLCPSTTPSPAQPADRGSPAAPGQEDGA
Sequence of GST-tagged recombinant human TYRO3 kinase domain (Q06418 518-790): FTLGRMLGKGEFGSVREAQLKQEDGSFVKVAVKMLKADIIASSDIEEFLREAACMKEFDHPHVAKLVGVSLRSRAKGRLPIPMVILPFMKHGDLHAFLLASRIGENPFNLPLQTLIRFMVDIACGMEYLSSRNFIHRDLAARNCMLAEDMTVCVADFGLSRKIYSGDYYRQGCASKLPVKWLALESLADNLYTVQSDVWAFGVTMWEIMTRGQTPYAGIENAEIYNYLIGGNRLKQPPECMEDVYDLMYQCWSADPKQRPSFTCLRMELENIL
Sequence of His-tagged recombinant human MER cytoplasmic domain (Q12866 527-999): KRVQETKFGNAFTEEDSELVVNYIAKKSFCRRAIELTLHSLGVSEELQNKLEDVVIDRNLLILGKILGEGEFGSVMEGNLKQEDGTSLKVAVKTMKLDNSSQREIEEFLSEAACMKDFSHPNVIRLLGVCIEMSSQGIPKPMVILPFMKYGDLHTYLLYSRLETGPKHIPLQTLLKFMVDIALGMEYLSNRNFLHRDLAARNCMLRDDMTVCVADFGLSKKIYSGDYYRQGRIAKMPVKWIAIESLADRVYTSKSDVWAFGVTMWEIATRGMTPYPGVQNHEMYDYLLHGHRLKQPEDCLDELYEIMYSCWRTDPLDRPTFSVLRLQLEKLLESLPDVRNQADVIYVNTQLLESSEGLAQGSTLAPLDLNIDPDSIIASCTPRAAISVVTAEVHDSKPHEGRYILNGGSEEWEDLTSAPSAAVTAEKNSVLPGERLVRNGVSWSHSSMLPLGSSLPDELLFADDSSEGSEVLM

`CCNc1cc2c(cn1)c(-c1cnn(C)c1)nn2[C@H]1CC[C@@H](Oc2nccc(C)c2F)CC1` [Example 346, N-ethyl-1-((1s,4s)-4-((3-fluoro-4-methylpyridin-2-yl)oxy)cyclohexyl)-3-(1-methyl-1H-pyrazol-4-yl)-1H-pyrazolo[4,3-c]pyridin-6-amine]: the pIC50 was > 8.00 in assay [1], > 8.00 in assay [2] and 7.00 to 8.00 in assay [3].
`CCNc1cc2c(cn1)c(-c1cnn(C)c1)nn2[C@H]1CC[C@@H](Oc2nccc(N(C)C)c2F)CC1` [Example 349, 1-((1s,4s)-4-((4-(dimethylamino)-3-fluoropyridin-2-yl)oxy)cyclohexyl)-N-ethyl-3-(1-methyl-1H-pyrazol-4-yl)-1H-pyrazolo[4,3-c]pyridin-6-amine]: the values for the pIC50 in assay [1], in assay [2] and in assay [3] were > 8.00, > 8.00 and 6.00 to 7.00, respectively.
Regarding `CCNc1cc2c(cn1)c(-c1cnn(C)c1)nn2[C@H]1CC[C@@H](Oc2nccc(C(F)(F)F)c2N(C)C)CC1` [Example 350, 1-((1s,4s)-4-((3-(dimethylamino)-4-(trifluoromethyl)pyridin-2-yl)oxy)cyclohexyl)-N-ethyl-3-(1-methyl-1H-pyrazol-4-yl)-1H-pyrazolo[4,3-c]pyridin-6-amine], the pIC50 in assay [1] is > 8.00; in assay [2], > 8.00; in assay [3] it was 7.00 to 8.00.
In the case of `CCNc1cc2c(cn1)c([C@H]1CC[C@@H](N(C)C)CC1)nn2[C@H]1CC[C@@H](Oc2nccc(C(F)(F)F)c2F)CC1` [Example 351, 3-((1s,4S)-4-(dimethylamino)cyclohexyl)-N-ethyl-1-((1s,4S)-4-((3-fluoro-4-(trifluoromethyl)pyridin-2-yl)oxy)cyclohexyl)-1H-pyrazolo[4,3-c]pyridin-6-amine], the pIC50 in assay [1], in assay [2] and in assay [3] was > 8.00 in each case.
For `CCNc1cc2c(cn1)c(-c1cnn(C)c1)nn2[C@H]1CC[C@@H](Oc2nccc(C#N)c2F)CC1` [Example 352, 2-(((1s,4s)-4-(6-(ethylamino)-3-(1-methyl-1H-pyrazol-4-yl)-1H-pyrazolo[4,3-c]pyridin-1-yl)cyclohexyl)oxy)-3-fluoroisonicotinonitrile], the negative-log IC50 (pIC50) in assay [1] was > 8.00; in assay [2], > 8.00; in assay [3] it was 7.00 to 8.00.
As to `CNc1cc2c(cn1)c(-c1cnn(C(C)(C)C#N)c1)nn2[C@H]1CC[C@@H](Oc2cccc(F)c2F)CC1` [Example 369, 2-(4-(1-((1s,4s)-4-(2,3-difluorophenoxy)cyclohexyl)-6-(methylamino)-1H-pyrazolo[4,3-c]pyridin-3-yl)-1H-pyrazol-1-yl)-2-methylpropanenitrile], the pIC50 was > 8.00 in assay [1], > 8.00 in assay [2] and 7.00 to 8.00 in assay [3].
As for `CCNc1cc2c(cn1)c(-c1cnn(C)c1)nn2[C@H]1CC[C@@H](Oc2cccc(F)c2F)CC1` [Example 374, 1-((1s,4s)-4-(2,3-difluorophenoxy)cyclohexyl)-N-ethyl-3-(1-methyl-1H-pyrazol-4-yl)-1H-pyrazolo[4,3-c]pyridin-6-amine], the negative logarithm of the IC50 (pIC50) was > 8.00 in assay [1], > 8.00 in assay [2] and 7.00 to 8.00 in assay [3].
For the compound `CNc1cc2c(cn1)c(-c1cnn(C)c1)nn2[C@H]1CC[C@@H](Oc2ccccc2S(C)(=O)=O)CC1` [Example 375, N-methyl-3-(1-methyl-1H-pyrazol-4-yl)-1-((1s,4s)-4-(2-(methylsulfonyl)phenoxy)cyclohexyl)-1H-pyrazolo[4,3-c]pyridin-6-amine], the figures for the negative logarithm of the IC50 (pIC50) in assay [1], in assay [2] and in assay [3] were > 8.00, > 8.00 and 7.00 to 8.00, respectively.
As for `CNc1cc2c(cn1)c(-c1cnn(C)c1)nn2[C@H]1CC[C@@H](Oc2cccc3ncccc23)CC1` [Example 377, N-methyl-3-(1-methyl-1H-pyrazol-4-yl)-1-((1s,4s)-4-(quinolin-5-yloxy)cyclohexyl)-1H-pyrazolo[4,3-c]pyridin-6-amine], the pIC50 in assay [1], in assay [2] and in assay [3] was > 8.00 throughout.
`CCNc1cc2c(cn1)c(-c1cnn(C)c1)nn2[C@H]1CC[C@@H](Oc2cccc(C#N)c2)CC1` [Example 378, 3-(((1s,4s)-4-(6-(ethylamino)-3-(1-methyl-1H-pyrazol-4-yl)-1H-pyrazolo[4,3-c]pyridin-1-yl)cyclohexyl)oxy)benzonitrile]: the values for the pIC50 in assay [1], in assay [2] and in assay [3] were > 8.00, > 8.00 and 7.00 to 8.00, respectively.
In the case of `CCNc1cc2c(cn1)c(-c1cnn(C)c1)nn2[C@H]1CC[C@@H](Oc2cccc(C#N)c2C)CC1` [Example 382, 3-(((1s,4s)-4-(6-(ethylamino)-3-(1-methyl-1H-pyrazol-4-yl)-1H-pyrazolo[4,3-c]pyridin-1-yl)cyclohexyl)oxy)-2-methylbenzonitrile], the negative-log IC50 (pIC50) in assay [1], in assay [2] and in assay [3] was > 8.00 in each case.
Turning to `CNc1cc2c(cn1)c(-c1cnn(C)c1)nn2[C@H]1CC[C@@H](Oc2cccc3ncc(F)cc23)CC1` [Example 384, 1-((1,4s)-4-((3-fluoroquinolin-5-yl)oxy)cyclohexyl)-N-methyl-3-(1-methyl-1H-pyrazol-4-yl)-1H-pyrazolo[4,3-c]pyridin-6-amine], the pIC50 in assay [1], in assay [2] and in assay [3] was > 8.00 in each case.
Regarding `CNC(=O)c1ccc(O[C@H]2CC[C@@H](n3nc(-c4cnn(C)c4)c4cnc(NC)cc43)CC2)c(C(F)(F)F)c1` [Example 393, N-methyl-4-(((1s,4s)-4-(3-(1-methyl-1H-pyrazol-4-yl)-6-(methylamino)-1H-pyrazolo[4,3-c]pyridin-1-yl)cyclohexyl)oxy)-3-(trifluoromethyl)benzamide], the pIC50 in assay [1] is > 8.00; in assay [2], > 8.00; in assay [3] it was 7.00 to 8.00.
`CNc1cc2c(cn1)c(-c1cnn(C(C)(C)CO)c1)nn2[C@H]1CC[C@@H](Oc2ccccc2F)CC1` [Example 395, 2-(4-(1-((1s,4s)-4-(2-fluorophenoxy)cyclohexyl)-6-(methylamino)-1H-pyrazolo[4,3-c]pyridin-3-yl)-1H-pyrazol-1-yl)-2-methylpropan-1-ol]: the pIC50 in assay [1] was > 8.00; in assay [2] it was > 8.00; in assay [3], 7.00 to 8.00.
For `CNc1cc2c(cn1)c(-c1cnn(CC(C)(C)O)c1)nn2[C@H]1CC[C@@H](Oc2ccccc2F)CC1` [Example 396, 1-(4-(1-((1s,4s)-4-(2-fluorophenoxy)cyclohexyl)-6-(methylamino)-1H-pyrazolo[4,3-c]pyridin-3-yl)-1H-pyrazol-1-yl)-2-methylpropan-2-ol], the pIC50 in assay [1] is > 8.00; in assay [2], > 8.00; in assay [3] it was 7.00 to 8.00.
Consider `CNc1cc2c(cn1)c(-c1cnn([C@H]3CCNC[C@@H]3F)c1)nn2[C@H]1CC[C@@H](Oc2ccccc2F)CC1` [Example 399, 1-((1s,4R)-4-(2-fluorophenoxy)cyclohexyl)-3-(1-((3S,4S)-3-fluoropiperidin-4-yl)-1H-pyrazol-4-yl)-N-methyl-1H-pyrazolo[4,3-c]pyridin-6-amine], for which the negative-log IC50 (pIC50) is > 8.00 in assay [1], > 8.00 in assay [2] and 7.00 to 8.00 in assay [3].
